In US9891212B2, “Screening method, a kit, a method of treatment and a compound for use in a method of treatment” (ATROGI AB, priority 2013, dated 2018):

Experiments:
L6-myotubes [1] = test: 3H-2-deoxy-glucose uptake in L6-myotubes; assay type: cell-based; conditions: for glucose uptake, isoprenaline versus BRL 37344: 2 h stimulation with 10^-5 M, n=7, FIG. 9
Experimental: Glucose uptake was measured in L6-myotubes grown in 12-well plates using ^3H-2-dexoy-glucose as previously described (Nevzorova et al. 2002) with minor modifications. L6-cells were differentiated for 7-8 days before the experiment, serum-starved over night in media containing 0.5% fatty-acid free BSA and stimulated with BRL 373 44 or Isoprenaline totally 2 h, unless otherwise stated. SQ 22 536 or ICI 118 551 were added 30 min before stimulation. 25 min before the end of the experiment, cells were washed twice in warm PBS and kept in glucose-free DMEM together with the different drugs for 10 min before 50 nM ^3H-2-deoxy-glucose was added for additional 6 minutes. The reaction was terminated by washing the cells in ice-cold PBS three times. Cells were lysed in 0.2 NaOH for 1 h in 60° C. and the radioactivity detected by liquid scintillation (scintillation buffer Emulsifier Safe, Perking Elmer and analysis is a Tri-Carb® 2800TR from Perkin Elmer).

GLUT4 = GLUT4 translocation to the plasma membrane in L6 cells (immunofluorescence); assay type: cell-based; conditions: 2 h stimulation, FIGS. 12 and 13
Experimental: L6 cells were grown in 8-well culture chamber slides (BD Biosciences, Franklin Lakes, BJ), serum starved overnight and stimulated with insulin, isoproterenol or BRL 37344 for 2 h. Cells were fixed for 5 min with 4% formaldehyde in PBS, quenched with 50 mM glycine in PBS for 10 min, blocked with 5% BSA in PBS and incubated with primary antibodies (diluted in 1.5% BSA in PBS) overnight at 4° C. As primary antibody anti GLUT4 binding to extracellular parts of GLUT4 (Santa Cruz Biotechnology, sc-1606, dilution 1:125) was used. Cells were then washed with PBS and incubated with Alexa Fluor® 488-conjugated goat anti-rabbit IgG (1:500 dilution, 1.5% BSA in PBS) for 1 h. Slides were mounted with ProLong® Gold antifade reagent (Invitrogen) and fluorescence micrographs were obtained (FIG. 12).

β3-KO mice [2] = test: in vivo 3H-2-deoxy-glucose uptake in soleus and gastrocnemius muscle; conditions: 1 mg/kg i.p., CPM per gram tissue divided by CPM per gram blood, FIG. 14
Experimental: β3-KO mice on FVB background, 12-16 weeks old, were anaesthetised with pentobarbital (67 mg/kg). BRL 37344 (1 mg/kg) or saline was injected i.p. about 10 min after induction of anaesthesia. After 20 min ^3H-2-deoxy-glucose (16 nM/130 μCi per kg of mouse) diluted in 100 μl saline was injected. Mice were killed 1 h after injection of 2-deoxy-glucose. Blood sample was taken from heart and soleus and gastrocnemius were dissected out. Tissues were weighed and dissolved in 0.5 M NaOH in 60° C. Radioactivity was detected as described above. The results are expressed as CPM per gram tissue divided by CPM per gram blood.

β3-KO mice [3] = test: blood glucose over time (glucose tolerance); assay type: in vivo; conditions: 1 mg per kg i.p., FIG. 15
Experimental: FIG. 15 is a graph showing variation over time of blood glucose (in mM) in β3-KO mice after ip injection of either saline or BRL 37344 (1 mg per kg). P<0.01 for the effect of BRL 37344 with two-way ANOVA.

L6-myotubes [4] = test: western blot for detection of phospho-CREB in L6-myotubes; assay type: cell-based; conditions: 10^-5 M, 10 to 120 min, FIGS. 5 and 6
Experimental: L6-myotubes were harvested and subjected to western blot for detection of phospho-CREB. For measuring protein phosphorylation of a target downstream cAMP cells were treated as indicated and harvested in pre-warmed SDS sample buffer containing 50 mM dithiothreitol, sonicated and boiled for 5 min. Proteins were separated on a 12% polyacrylamide gel for 3 h at 80 V. The proteins were transferred onto Hypbond-P PVDF membrane (GE Healthcare) which was blocked in milk for 1 h and probed with primary antibodies. All antibodies were purchased from Cell Signaling and diluted 1:1000: Primary antibodies were detected using a secondary antibody (horseradish peroxidase-linked anti-rabbit IgG, #7074) diluted 1:2000 and enhanced chemiluminescence (ECL plus, GE Healthcare). Photos were taken in a CCD camera (Fuji Las 1000) and quantification performed in software ImageJ.
Lanes 1 and 7=basal, 2-6=isoprenaline treatment for 10, 15, 30, 60 and 120 min, 8-12=BRL 37344 treatment for 10, 15, 30, 60 and 120 min. […] Quantification of n=3 blots (FIG. 6).

L6 skeletal muscle cells = test: cAMP levels in L6 skeletal muscle cells (alpha-screen cAMP kit); assay type: cell-based
Experimental: L6 myocytes were obtained from ATCC and grown in Dulbecco's Modified Eagle's Medium (DMEM) containing 4.5 g/L glucose supplemented with 10% fetal bovine serum (FBS), 2 mM L-Glutamine, 50 U/ml penicillin, 50 μg/ml streptomycin and 10 mM HEPES. Cells were plated in 12- or 96-well plates and after reaching confluence differentiation was induces by differentiation media containing 2% FBS.
L6-cells were differentiated in 96-well plates and after 7 days of differentiation cells serum-starved and treated with drugs in stimulation buffer (HBSS supplemented with 1% BSA and 5 mM HEPES, pH 7.4). To end the reaction cells were harvested in ice-cold lysis buffer (0.3% Tween-20, 5 mM Hepes, 1% BSA and 1 mM IBMX, pH 7.4). Levels of cAMP were detected by an alpha-screen cAMP kit (6760625R from Perkin Elmer) according to the manufactures instruction.
The cAMP was measured in L6-myotubes after 2 h stimulation. The results (FIG. 3) indicate that BRL 37344 cannot be considered a general beta2-adrenergic receptor agonist (or beta1-adrenergic receptor) stimulating cAMP in skeletal muscle cells.

CC(C)NCC(O)c1ccc(O)c(O)c1 (racemic) [isoprenaline, (RS)-4-[1-hydroxy-2-(isopropylamino)ethyl]benzene-1,2-diol]
glucose uptake, isoprenaline versus BRL 37344 (L6-myotubes [1]): no significant difference between the responses

C[C@H](Cc1ccc(OCC(=O)O)cc1)NC[C@H](O)c1cccc(Cl)c1 (relative stereo) [BRL 37344, (±)-(R*,R*)-[4-[2-[[2-(3-chlorophenyl)-2-hydroxyethyl]amino]propyl]phenoxy]acetic acid]
GLUT4 translocation to the plasma membrane (GLUT4): increase of GLUT4 translocation to the plasma membrane | glucose uptake in both skeletal muscles relative to control mice (β3-KO mice [2]): 2-3 times higher | maximum blood glucose compared to control mice (β3-KO mice [3]): substantially reduced | phospho-CREB (downstream target of cAMP) (L6-myotubes [4]): not affected | cAMP levels at different concentrations (L6 skeletal muscle cells; L6-myotubes, 2 h stimulation, FIG. 3): no or little impact on cAMP levels | cAMP at time points examined (L6 skeletal muscle cells; L6 skeletal muscle cells, 0 min to 25 min of contact, FIG. 2): At no time point examined did BRL 37344 increase cAMP | cAMP over basal (L6 skeletal muscle cells; L6 skeletal muscle cells, FIG. 1): did not significantly increase cAMP over basal | glucose uptake, isoprenaline versus BRL 37344 (L6-myotubes [1]): no significant difference between the responses | BRL 37344 stimulated glucose uptake with beta2 inhibition (L6-myotubes [1]; BRL 37344 10 μM, 2 h, in presence of 10 μM ICI 118551, FIG. 11): fully inhibits | glucose uptake at different concentrations (L6-myotubes [1]; L6-myotubes, 2 h stimulation, n=7, FIG. 8): increases glucose uptake | glucose uptake at different time points (L6-myotubes [1]; L6-myotubes, BRL 37344 10 μM, FIG. 7): increases during time | BRL 37344 stimulated glucose uptake with inhibition of adenylyl cyclase (L6-myotubes [1]; SQ 22536 500 μM added 30 min before stimulation, FIG. 10): does not decrease
